Source: BindingDB's records for doi:10.1016/j.bmcl.2019.126806 (Temple University, 2020)

biological target: T1, Lysosomal acid glucosylceramidase (Homo sapiens, UniProt P04062); assay: Chaperone activity at GCase in wild-type human fibroblasts assessed as increase in GPN-induced reduction of calcium release using Fluo-8AM based fluorescence assay
T1 sequence (P04062 whole entry): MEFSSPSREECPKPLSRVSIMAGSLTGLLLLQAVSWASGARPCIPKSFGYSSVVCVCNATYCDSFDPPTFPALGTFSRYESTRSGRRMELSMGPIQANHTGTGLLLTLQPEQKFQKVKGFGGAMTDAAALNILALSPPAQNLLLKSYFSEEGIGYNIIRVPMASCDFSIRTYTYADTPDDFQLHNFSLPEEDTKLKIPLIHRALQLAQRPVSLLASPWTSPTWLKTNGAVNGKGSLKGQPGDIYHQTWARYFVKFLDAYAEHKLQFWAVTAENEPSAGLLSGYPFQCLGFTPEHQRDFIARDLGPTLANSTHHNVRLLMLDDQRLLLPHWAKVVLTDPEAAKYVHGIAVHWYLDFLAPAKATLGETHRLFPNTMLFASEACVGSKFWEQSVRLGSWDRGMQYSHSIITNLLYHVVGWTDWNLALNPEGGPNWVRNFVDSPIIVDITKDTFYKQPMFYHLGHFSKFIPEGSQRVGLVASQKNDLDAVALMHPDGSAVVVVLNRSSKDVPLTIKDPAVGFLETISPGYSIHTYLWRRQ

EC50 [µM] | Structure (SMILES)
1.1 | CC(C)CC(C(=O)c1ccc(OCCN(C)C)cc1)c1ccccc1C1CC1 (centres undefined)
1.1 | CC(C)CC(C(=O)c1ccc(OCCN(C)C)cc1)c1ccccc1C(C)C (centres undefined)
1.1 | C/C=C/c1ccccc1C(CCCC)C(=O)c1ccc(OCCN(C)C)cc1 (centres undefined)
0.7 | CCCCC(C(=O)c1ccc(OCCN(C)C)cc1)c1ccccc1C(C)C (centres undefined)
